US7105547B2, “Antimicrobial 1-aryl dihydropyridone compounds” (Pharmacia and Upjohn Company, priority 2002, dated 2006)
In brackets after ≈: the same amount, converted by molar mass. Read-outs that look alike come from different tables or passages of the source.

Columns and labels:
[1] = test system: Staphylococcus aureus UC9213 (SAUR 9213); assay: MIC by agar dilution against Staphylococcus aureus UC9213; type: cell-based; settings: read-out: SAUR 9213 MIC (Minimum Inhibitory Concentration)
Text: (§1) Compounds of this invention have useful activity against a variety of organisms. The in vitro activity of compounds of this invention can be assessed by standard testing procedures such as the determination of minimum inhibitory concentration (MIC) by agar dilution as described in “Approved Standard. Methods for Dilution Antimicrobial Susceptibility Tests for Bacteria That Grow Aerobically”, 3rd. ed., published 1993 by the National Committee for Clinical Laboratory Standards, Villanova, Pa., USA.

SPNE 9912 = assay: MIC by agar dilution against SPNE 9912; type: cell-based; settings: Streptococcus pneumoniae, read-out: SPNE 9912 MIC (Minimum Inhibitory Concentration)
Text: as §1

HINF 30063 = assay: MIC by agar dilution against HINF 30063; type: cell-based, H. influenzae; settings: Haemophilus influenzae, read-out: HINF 30063 MIC (Minimum Inhibitory Concentration)
Text: as §1

SMILES | MIC [1] [µg/mL] | MIC (SPNE 9912) [µg/mL] | MIC (HINF 30063; HINF 30063, agar dilution) [µg/mL] | MIC (HINF 30063) [µg/mL]
CC(=O)NC[C@H]1CN(c2ccc(N3C=CC(=O)CC3)c(F)c2)C(=O)O1 [Example 1, N-{3-[3-fluoro-4-(4-oxo-3,4-dihydro-2H-pyridin-1-yl)-phenyl]-2-oxo-oxazolidin-5-ylmethyl}-acetamide] | 2 (≈ 5.76 µM) | 0.25 (≈ 0.72 µM) | 4 (≈ 11.5 µM) | –
O=C1C=CN(c2ccc(N3C[C@H](CNC(=O)C(F)F)OC3=O)cc2F)CC1 [Example 3, N-{3-[3-fluoro-4-(4-oxo-3,4-dihydro-2H-pyridin-1-yl)-phenyl]-2-oxo-oxazolidin-5-ylmethyl}-difluoroacetamide] | 1 (≈ 2.61 µM) | 0.25 (≈ 0.652 µM) | – | 2 (≈ 5.22 µM)
COC(=O)NC[C@H]1CN(c2ccc(N3C=CC(=O)CC3)c(F)c2)C(=O)O1 [Example 7, {3-[3-fluoro-4-(4-oxo-3,4-dihydro-2H-pyridin-1-yl)-phenyl]-2-oxo-oxazolidin-5-ylmethyl}-carbamic Acid Methyl Ester] | 2 (≈ 5.5 µM) | 0.5 (≈ 1.38 µM) | 8 (≈ 22 µM) | –
O=C1C=CN(c2ccc(N3C[C@H](CNC(=O)C(Cl)Cl)OC3=O)cc2)CC1 [Example 8, 2,2-dichloro-N-{2-oxo-3-[4-(4-oxo-3,4-dihydro-2H-pyridin-1-yl)-phenyl]-oxazolidin-5-ylmethyl}-acetamide] | 2 (≈ 5.02 µM) | 0.25 (≈ 0.628 µM) | 2 (≈ 5.02 µM) | –
CC(=O)NC[C@H]1CN(c2ccc(N3C=CC(=O)CC3)cc2)C(=O)O1 [Example 9, N-{2-oxo-3-[4-(4-oxo-3,4-dihydro-2H-pyridin-1-yl)-phenyl]-oxazolidin-5-ylmethyl}-acetamide] | 2 (≈ 6.07 µM) | 0.5 (≈ 1.52 µM) | 4 (≈ 12.1 µM) | –
O=C1C=CN(c2ccc(N3C[C@H](CNC(=S)C(F)F)OC3=O)cc2)CC1 [Example 10, 2,2-difluoro-N-{2-oxo-3-[4-(4-oxo-3,4-dihydro-2H-pyridin-1-yl)-phenyl]-oxazolidin-5-ylmethyl}-thioacetamide] | 1 (≈ 2.62 µM) | 0.25 (≈ 0.655 µM) | 4 (≈ 10.5 µM) | –
O=C1C=CN(c2ccc(N3C[C@H](CNC(=O)C(F)F)OC3=O)cc2)CC1 [Example 11, 2,2-difluoro-N-{2-oxo-3-[4-(4-oxo-3,4-dihydro-2H-pyridin-1-yl)-phenyl]-oxazolidin-5-ylmethyl}-acetamide] | 2 (≈ 5.47 µM) | 0.5 (≈ 1.37 µM) | 4 (≈ 10.9 µM) | –
CCC(=O)NC[C@H]1CN(c2ccc(N3C=CC(=O)CC3)cc2)C(=O)O1 [Example 12, N-{2-oxo-3-[4-(4-oxo-3,4-dihydro-2H-pyridin-1-yl)-phenyl]-oxazolidin-5-ylmethyl}-propionamide] | 4 (≈ 11.6 µM) | 0.5 (≈ 1.46 µM) | 4 (≈ 11.6 µM) | –
O=C1C=CN(c2c(F)cc(N3C[C@H](CNC(=O)C(F)F)OC3=O)cc2F)CC1 [Example 13, N-{3-[3,5-difluoro-4-(4-oxo-3,4-dihydro-2H-pyridin-1-yl)-phenyl]-2-oxo-oxazolidin-5-ylmethyl}-2,2-difluoro-acetamide] | 2 (≈ 4.98 µM) | 0.25 (≈ 0.623 µM) | 8 (≈ 19.9 µM) | –
O=C1C=CN(c2c(F)cc(N3C[C@H](CNC(=O)C(Cl)Cl)OC3=O)cc2F)CC1 [Example 15, 2,2-dichloro-N-{3-[3,5-difluoro-4-(4-oxo-3,4-dihydro-2H-pyridin-1-yl)-phenyl]-2-oxo-oxazolidin-5-ylmethyl}-acetamide] | 2 (≈ 4.61 µM) | 0.25 (≈ 0.576 µM) | 4 (≈ 9.21 µM) | –
O=C1C=CN(c2ccc(N3C[C@H](Cn4ccnn4)OC3=O)cc2F)CC1 [Example 16, 1-{2-fluoro-4-[(5R)-2-oxo-5-(1H-1,2,3-triazol-1-ylmethyl)-1,3-oxazolidin-3-yl]phenyl}-2,3-dihydropyridin-4(1H)-one] | 1 (≈ 2.8 µM) | 0.25 (≈ 0.7 µM) | 8 (≈ 22.4 µM) | –
O=C1C=CN(c2ccc(N3C[C@H](Cn4ccnn4)OC3=O)cc2)CC1 [Example 17, 1-{4-[(5R)-2-oxo-5-(1H-1,2,3-triazol-1-ylmethyl)-1,3-oxazolidin-3-yl]phenyl}-2,3-dihydropyridin-4(1H)-one] | 1 (≈ 2.95 µM) | 1 (≈ 2.95 µM) | 8 (≈ 23.6 µM) | –

Continued by falling MIC [1], values first:

MIC [1] [µg/mL] | MIC (SPNE 9912) [µg/mL] | MIC (HINF 30063; HINF 30063, agar dilution) [µg/mL] | SMILES | MIC (HINF 30063) [µg/mL]
1 (≈ 2.74 µM) | 0.5 (≈ 1.37 µM) | 8 (≈ 21.9 µM) | CC(=O)NC[C@H]1CN(c2cc(F)c(N3C=CC(=O)CC3)c(F)c2)C(=O)O1 [Example 2, N-{3-[3,5-diluoro-4-(4-oxo-3,4-dihydro-2H-pyridin-1-yl)-phenyl]-2-oxo-oxazolidin-5-ylmethyl}-acetamide] | –
1 (≈ 2.77 µM) | 0.5 (≈ 1.38 µM) | 2 (≈ 5.53 µM) | CCC(=O)NC[C@H]1CN(c2ccc(N3C=CC(=O)CC3)c(F)c2)C(=O)O1 [Example 4, N-{3-[3-fluoro-4-(4-oxo-3,4-dihydro-2H-pyridin-1-yl)-phenyl]-2-oxo-oxazolidin-5-ylmethyl}-propionamide] | –
1 (≈ 2.4 µM) | 0.25 (≈ 0.601 µM) | 1 (≈ 2.4 µM) | O=C1C=CN(c2ccc(N3C[C@H](CNC(=O)C(Cl)Cl)OC3=O)cc2F)CC1 [Example 5, 2,2-dichloro-N-{3-[3-fluoro-4-(4-oxo-3,4-dihydro-2H-pyridin-1-yl)-phenyl]-2-oxo-oxazolidin-5-ylmethyl}-acetamide] | –
1 (≈ 2.5 µM) | 0.125 (≈ 0.313 µM) | 4 (≈ 10 µM) | O=C1C=CN(c2ccc(N3C[C@H](CNC(=S)C(F)F)OC3=O)cc2F)CC1 [Example 6, 2,2-difluoro-N-{3-[3-fluoro-4-(4-oxo-3,4-dihydro-2H-pyridin-1-yl)-phenyl]-2-oxo-oxazolidin-5-ylmethyl}-thioacetamide] | –
0.5 (≈ 1.2 µM) | 0.25 (≈ 0.599 µM) | 8 (≈ 19.2 µM) | O=C1C=CN(c2c(F)cc(N3C[C@H](CNC(=S)C(F)F)OC3=O)cc2F)CC1 [Example 14, N-{3-[3,5-difluoro-4-(4-oxo-3,4-dihydro-2H-pyridin-1-yl)-phenyl]-2-oxo-oxazolidin-5-ylmethyl}-2,2-difluoro-thioacetamide] | –
